{"source": "patent US9949929B2", "about": "“Drug carrier and manufacturing method thereof” (National Taiwan University Hospital, priority 2015, dated 2018)", "key": {"[1]": {"experiment": "temperature increase of samples irradiated by near-infrared laser (photothermal)", "assay_type": "physicochemical", "details": "near-infrared laser 1 W/cm^2, 650 nm", "text": "(§1) The drug carriers of example 1 and example 2 are used for preparing nanomicelles and drug-encapsulating nanomicelles so as to undergo the following tests. When preparing the nanomicelles, the dried drug carriers are uniformly dissolved in dimethyl sulfoxide (DMSO) to obtain a drug-carrier-DMSO solution. Next, the dimethyl sulfoxide (DMSO) in the drug-carrier-DMSO solution is removed by lyophilization, and the nanomicelles formed by self-assembly of the drug carriers are left. Last, the nanomicelles are put into a phosphate buffered saline (PBS) and sonicated for 20 min; therefore, the nanomicelles are uniformly dissolved in the phosphate buffered saline (PBS) for the following tests.\n(§2) When preparing the drug-encapsulating nanomicelles, the drug molecules selected to be encapsulated in the nanomicelles are Doxorubicin (Doxo). First, the dried drug carriers and Doxorubicin molecules are uniformly dissolved in dimethyl sulfoxide (DMSO) to obtain a drug-carrier-Doxorubicin-DMSO solution. […]\nPlease refer to FIG. 5. […] When a temperature increase of samples irradiated by near-infrared light (NIR) is measured, the near-infrared light is a near-infrared laser, and the samples are the phosphate buffered saline (PBS), the Doxorubicin (Doxo), the nanomicelles and the drug-encapsulating nanomicelles which encapsulate the Doxorubicin (Doxo). […]"}, "cancer cells": {"tested_on": "cancer cells", "experiment": "cell viability of cancer cells treated with nanomicelles, drug-encapsulating nanomicelles or free Doxorubicin", "assay_type": "cell-based", "set-up": "dose or concentration left out as unconfirmed", "text": "as §1\nas §2, with “solution. Next, the dimethyl sulfoxide (DMSO) in the drug-carrier-Doxorubicin-DMSO solution is removed by lyophilization, and the drug-encapsulating nanomicelles formed by self-assembly of the drug carriers as well as Doxorubicin crystals which are not encapsulated in the drug-encapsulating nanomicelles are left.” for “solution.”"}}}
{"smiles": "COc1cccc2c1C(=O)c1c(O)c3c(c(O)c1C2=O)C[C@@](O)(C(=O)CO)C[C@@H]3O[C@H]1C[C@H](N)[C@H](O)[C@H](C)O1", "note": "[Doxorubicin (Doxo), Doxorubicin]", "values": [{"measurement": "temperature change as irradiation time is increased", "setting": "[1]", "result": "no significant change"}, {"measurement": "cell viability of the cancer cell", "setting": "cancer cells", "result": 80, "unit": "%"}]}
